From article PMC6152329, “Antitumoural Sulphur and Selenium Heteroaryl Compounds: Thermal Characterization and Stability Evaluation” (Molecules : A Journal of Synthetic Chemistry and Natural …, 2017)
Values belong to the compound of their own block, whether it stands above or below them.

How the values were obtained:
[1] = test system: non-malignant mammary-gland-derived (184B5) cell line; assay: MTT cell viability assay, 72 h, 184B5; type: cell-based; details: 184B5, 72 h; for GI50: Homo sapiens
Procedure: (§1) The novel synthetic compounds VA2J, VA4J, VA6G, VA6H, VA6I and VA6J were tested in breast adenocarcinoma (MCF-7) and non-malignant mammary-gland-derived (184B5) cell lines to be able to establish their potency and selectivity. The reference drug used was methylseleninic acid (MSA) as a Se-containing structure with promising in vitro and in vivo results against different tumour types. Results are expressed as the concentration that inhibits 50% cell growth (GI50), the concentration that inhibits completely cell growth (TGI) and the concentration that kills 50% of cells (LD50). The selectivity index (SI) is calculated as GI50(184B5)/GI50(MCF-7).
(§2) Cell lines were purchased from the American Type Culture Collection (ATCC, Barcelona, Spain). MCF7 cell lines were grown in Roswell Park Memorial Institute (RPMI) medium (Gibco, Madrid, Spain) supplemented with 10% fetal bovine serum (FBS; Gibco), 100 units/mL penicillin and […] (Gibco, Madrid, Spain). 184B5 cells were grown in DMEM/F12 medium supplemented with 5% FBS, 1x ITS (Lonza, Barcelona, Spain), 100 nM hydrocortisone (Sigma Aldrich, Madrid, Spain), 2 mM sodium pyruvate (Lonza), 20 ng/mL EGF (Sigma Aldrich, Madrid, Spain), 0.3 nM trans-retinoic acid (Sigma-Aldrich) 100 units/mL penicillin and […]. Cells were maintained at 37 °C and 5% CO2.
(§3) Compounds were dissolved in DMSO at a concentration of 0.01 M. Serial dilutions were prepared with non-supplemented medium. The cytotoxic effect of each compound was tested at eight different concentrations ranging between 0.01 and 100 µM.
(§4) A total of 10^4 cells/well in 96 well-plates were treated with either DMSO or increasing concentrations of the corresponding compound for 72 h and cell viability was determined using the MTT (3-(4,5-dimethylthiazol-2-yl)-2,5-diphenyltetrazolium bromide) (Sigma Aldrich, Madrid, Spain) assay. Briefly, cells were incubated with 50 µL of MTT (2 mg/mL stock) for 4 h. The medium was then removed by aspiration and the formazan crystals were dissolved in 150 µL of DMSO. The absorbance was measured at 550 nm in a microplate reader (Sunrise, Tecan, Männedorf, Switzerland). […] Data were obtained from at least three independent experiments performed in quadruplicate.

[2] = test system: breast adenocarcinoma (MCF-7) cell line; assay: MTT cell viability assay, 72 h, MCF-7; type: cell-based, human; details: for SI (selectivity index): GI50(184B5)/GI50(MCF-7); for TGI / LD50 / GI50: MCF-7, 72 h, MTT; for TGI: concentration that completely inhibits cell growth; for LD50: concentration that kills 50% of cells; for GI50: concentration that inhibits 50% cell growth
Procedure: as §1, §2, §3, §4

[3] = Thermogravimetric (TG) analysis of thermal stability; type: physicochemical; details: for TG To (Tonset of thermal degradation): nitrogen, 50 to 350 °C; for TG decomposition or desolvation processes in the temperature range studied: range 100–135 °C for VA4J, 94–108 °C for VA6E
Procedure: The thermogravimetric (TG) studies were carried out with a Perkin–Elmer TGA-7 (Perkin Elmer, Inc. Watham, MA, USA) which was calibrated with alumel and nickel at 10 °C·min^−1. The calibration of the oven temperatures was carried out automatically and mass calibrated with a certified sample of 10 mg (ASTM E617, provided by Perkin Elmer, Inc. Watham, MA, USA). TG analyses were performed under a nitrogen atmosphere with a gas flow of 40 mL·min^−1, from 50 to 350 °C, at a heating rate of 10 °C·min^−1, using a sample of approximately 3 mg, in order to obtain the values of the Tonset and Tmax of the degradation process as well as any associated mass loss.

[4] = Stability after stress conditions by HPLC/UV-DAD; type: physicochemical; details: 0, 4 and 24 h; for Stability to oxidation: H2O2 3%; for Stability to acid hydrolysis: HCl 1 M; for Stability to basic (alkaline) hydrolysis: NaOH 0.1 M
Procedure: The stability of compounds VA4J (without polymorphic behaviour) and VA6E and VA7J (with polymorphic behaviour) was investigated after the application of diverse stress conditions: acid hydrolysis (HCl 1 M), basic hydrolysis (NaOH 0.1 M) and oxidation (H2O2 3%). Chromatographic studies using HPLC/UV-DAD were performed with this purpose.
Chromatographic studies were performed using an HPLC/UV-DAD (HP 1200, Agilent Technologies. Santa Clara, CA, USA) with a C18 column (Gemini-NX 150 × 4.6 mm, 5 µm) from Phenomenex (Phenomenex. Torrance, CA, USA). The mobile phase was a mixture of acetonitrile/water (80:20; v/v) for compound VA4J, (50:50; v/v) for VA6E and (80:20, 0.1% formic acid; v/v) for compound VA7J. The injection volume was 50 µL and the flow rate was 1 mL/min. Chromatography was performed at 35 °C. UV-DAD detection was established at λ = 254 nm.
For stability evaluation in stress conditions, working solutions of 47.6 µg/mL were prepared by diluting 20 µL of each standard solution in 200 µL of acetonitrile and 200 µL of (a) 1 M HCl, (b) 0.1 M NaOH and (c) 3% H2O2. Data were recorded at zero time and after 4 and 24 h of exposure.

[5] = DSC successive melting-recrystallization cycles, polymorphic behaviour; type: physicochemical; set-up: key: I: Compounds that show a polymorphic phase transition into an amorphous or mainly amorphous solid form after a first melting–cooling scan; II: Compounds that change into a new polymorphic form with a different Tonset of fusion than the one observed at the first melting–recrystallization scan after cooling; III: These compounds show a fusion process without modifications in the thermal behaviour after an initial fusion–recrystallization cycle; IV: Compounds that show recrystallization or other types of phase transition of the original form into another crystalline one in the first heat scan; V: Compounds without fusion processes at the range of temperatures studied; *: fusion with decomposition; details: 10 °C/min
Procedure: To establish general polymorphic behaviours, samples of all the compounds synthetized (Figure 1) were exposed to successive cycles of melting–recrystallization using DSC. Calorimetric analyses were performed before the beginning of the degradation process (Table 6). […] This behaviour was shown by several compounds: VA1C, VA2E, VA8E, series H, VA6I, VA8J, VA6M and VA8M. DSC and PXRD results of compound VA7H are shown as supplementary material (Figures S1 and S2 and Table S1). • Behaviour II—Compounds that change into a new polymorphic form with a different Tonset of fusion than the one observed at the first melting–recrystallization scan after cooling. These compounds are VA7E and VA8O. DSC and PXRD results of compound VA7E are shown as supplementary material (Figures S3 and S4, Table S2). • Behaviour III—These compounds show a fusion process without modifications in the thermal behaviour after an initial fusion–recrystallization cycle. Consequently, there is no evidence of polymorphic behaviour. The compounds VA2C, VA2M, VA4J and VA5O belong to this group. DSC and PXRD results of compound VA2M are shown as supplementary material (Figures S5 and S6, Table S3). • Behaviour IV—Compounds that show recrystallization or other types of phase transition of the original form into another crystalline one in the first heat scan. In the successive cycles of melting–recrystallization, the new form may not alter its crystalline form or transit to another polymorphic form. Compounds VA6E, VA7J and VA7M show this behaviour. • Behaviour V—Compounds without fusion processes at the range of temperatures studied.
For calorimetric studies a Perkin–Elmer DSC diamond calibrated with indium and zinc (provided by Perkin–Elmer (Perkin Elmer, Inc. Watham, MA, USA) and fabricated according to guideline ISO35) at 10 °C·min^−1 and nitrogen flow of 20 mL·min^−1 was employed. The gas connected to the equipment was nitrogen with a purity of 99.999%. Calorimetric analyses were carried out in aluminium capsules for volatilities of 10 μL, at a heating rate of 10 °C·min^−1, using a sample of approximately 3 mg, in order to establish the Tonset, Tmax and the enthalpy of fusion ∆Hf.
The calorimetric analyses started with the study of the thermal behaviour of the compounds before the process of degradation in order to evidence the possible existence of polymorphism. For this preliminary study, samples of all the compounds were exposed to successive cycles of heating–cooling. All samples were heated from 50 °C to temperatures 15–20 °C below Tonset of the degradation process, in order to ensure that compounds were not degraded (Table 6). After melting the samples, they were left at room temperature for enough time to allow the compounds to recrystallize before the successive thermal process. Additional cycles of heating–cooling were performed if polymorphism was detected.

[6] = test system: breast adenocarcinoma (MCF-7) cell line; set-up: method as in PMID 27487570; details: same methodology; cited from earlier work
[7] = test system: 1205Lu (melanoma), A549 (lung), DU145 (prostate), HCT116 (colon), PANC-1 (pancreas) and BxPC3 (pancreas); set-up: method as in PMID 26922233; details: all six cell lines, even at short time points; MTT conditions slightly different; cited from earlier work

SMILES: CSc1nc2ccccc2nc1SC [VA4J, 2,3-Bis(methylsulfanyl)quinoxaline]
- LD50 [1]: >100 µM
- TGI [1]: >100 µM
- GI50 [1]: 52.5 µM
- SI (selectivity index) [2]: 51.25
- TGI [2]: >100 µM
- LD50 [2]: >100 µM
- SI relative to MSA ([2]; SI of compound compared with SI of MSA): over 50 times
- TG To (Tonset of thermal degradation) ([3]; 10 °C/min): 197.42 °C
- TG decomposition or desolvation processes in the temperature range studied [3]: can be excluded
- Stability to oxidation [4]: stable
- Stability to acid hydrolysis [4]: stable
- Stability to basic (alkaline) hydrolysis [4]: stable
- DSC Behaviour (polymorphic/calorimetric behaviour) [5]: III

- TG To (Tonset of thermal degradation) ([3]; 10 °C/min): 184.1 °C
- TG decomposition or desolvation processes in the temperature range studied [3]: can be excluded
- Stability to basic (alkaline) hydrolysis [4]: degraded almost completely
- DSC Behaviour (polymorphic/calorimetric behaviour) [5]: IV
SMILES: N#CSCc1cc2c(cc1Br)OCO2 [VA6E]
- Stability to oxidation [4]: degradation product peaks were also detected
- Stability to acid hydrolysis [4]: degradation product peaks were also detected
- Selectivity relative to MSA [6]: fourteen times more selective than MSA

SMILES: N#CSCc1ccc2ccccc2n1 [VA6H, Quinolin-2-ylmethyl Thiocyanate]
- LD50 [1]: >100 µM
- TGI [1]: 75.84 µM
- GI50 [1]: 27.8 µM
- SI (selectivity index) [2]: 3.25
- GI50 ([2]; Homo sapiens, MCF7, 72 h): < 10 µM
- TGI [2]: 14.83 µM
- GI50 [2]: 8.53 µM
- LD50 [2]: 24.18 µM
- TG To (Tonset of thermal degradation) ([3]; 10 °C/min): 139.1 °C
- DSC Behaviour (polymorphic/calorimetric behaviour) [5]: I

SMILES: COc1cc2oc(=O)cc(CSC#N)c2cc1OC [VA6I, (6,7-Dimethoxy-2-oxo-2H-chromen-4-yl)methyl Thiocyanate]
- LD50 [1]: >100 µM
- TGI [1]: >100 µM
- GI50 [1]: 2.26 µM
- SI (selectivity index) [2]: 0.50
- TGI [2]: >100 µM
- LD50 [2]: >100 µM
- TG To (Tonset of thermal degradation) ([3]; 10 °C/min): 246.9 °C
- DSC Behaviour (polymorphic/calorimetric behaviour) [5]: I

SMILES: N#CSCc1nc2ccccc2nc1CSC#N [VA6J, Quinoxalin-2,3-diyldimethanediyl Bisthiocyanate]
- LD50 [1]: 94.62 µM
- TGI [1]: 69.80 µM
- GI50 [1]: 39.8 µM
- SI (selectivity index) [2]: 2.15
- GI50 ([2]; Homo sapiens, MCF7, 72 h): 18.5 µM
- TGI [2]: 50.55 µM
- LD50 [2]: 83.93 µM
- TG To (Tonset of thermal degradation) ([3]; 10 °C/min): 165.0 °C
- DSC Behaviour (polymorphic/calorimetric behaviour) [5]: *

SMILES: N=C(N)[Se]Cc1nc2ccccc2nc1C[Se]C(=N)N [VA7J]
- TG debromhidration process temperature ([3]; 10 °C/min): 173 °C
- IC50 [7]: < 10 µM
- Stability to oxidation [4]: totally degraded
- Stability to acid hydrolysis [4]: stable
- Stability to basic (alkaline) hydrolysis [4]: only a minor degradation
- DSC Behaviour (polymorphic/calorimetric behaviour) [5]: IV
